Measured values: ChEMBL document CHEMBL3822437, “N,N-Bis(glycityl)amines as anti-cancer drugs” (Bioorg Med Chem, 2016)

What was measured:
[1] = Selectivity index, ratio of IC50 for human SVGp12 cells to IC50 for human LN18 cells; format: functional
[2] = cells; settings: Homo sapiens, HL-60, 48 h
Description: Antiproliferative activity against human HL60 cells after 48 hrs by MTT assay

[3] = Antiproliferative activity against human LN18 cells after 48 hrs by MTT assay; format: functional, cell-based; settings: LN-18, 48 h
[4] = Antiproliferative activity against human SVGp12 cells after 48 hrs by MTT assay; format: cell-based; settings: SVGp12, 48 h
[5] = system: HEK293; experiment: Selectivity index, ratio of IC50 for HEK293 cells to IC50 for human HL60 cells; format: functional
[6] = system: HEK293; experiment: Antiproliferative activity against HEK293 cells after 48 hrs by MTT assay; format: cell-based; settings: Homo sapiens, HEK293, 48 h
[7] = Antiproliferative activity against human THP1 cells after 48 hrs by MTT assay; format: functional, cell-based; settings: THP-1, 48 h

| IC50 [2] | SMILES | Ratio IC50 [1] | IC50 [3] | IC50 [4] | Ratio IC50 [5] | IC50 [6] | IC50 [7] |
| --- | --- | --- | --- | --- | --- | --- | --- |
| 136 µM | OC[C@@H](O)[C@H](O)[C@@H](O)CN(CCc1ccccc1)C[C@H](O)[C@@H](O)[C@H](O)CO | – | 255 µM | – | 1.58 | 215 µM | – |
| 6.44 µM | CCCCCCCCCCCCCCCCN(CC[C@H](O)[C@H](O)CO)CC[C@H](O)[C@H](O)CO | 0.872 | 30.5 µM | 26.6 µM | 4.83 | 31.1 µM | – |
| 121 µM | OC[C@@H](O)[C@@H](O)[C@H](O)CN(CCc1ccccc1)C[C@@H](O)[C@H](O)[C@H](O)CO | 0.864 | 257 µM | 222 µM | 1.9 | 230 µM | – |
| 6.66 µM | CCCCCCCCCCCCCCCCN(CC[C@@H](O)[C@H](O)[C@H](O)CO)CC[C@@H](O)[C@H](O)[C@H](O)CO | – | 50.6 µM | – | – | – | – |

Continued, molecule first:

| SMILES | IC50 [2] | Ratio IC50 [1] | IC50 [3] | IC50 [4] | Ratio IC50 [5] | IC50 [6] | IC50 [7] |
| --- | --- | --- | --- | --- | --- | --- | --- |
| OC[C@@H](O)[C@@H](O)[C@H](O)[C@@H](O)CN(CCc1ccccc1)C[C@H](O)[C@@H](O)[C@H](O)[C@H](O)CO | 91.3 µM | 0.731 | 290 µM | 212 µM | – | – | – |
| OC[C@@H](O)[C@@H](O)[C@@H](O)CN(CCc1ccccc1)C[C@H](O)[C@H](O)[C@H](O)CO | 89.4 µM | – | 205 µM | – | – | – | – |
| C[S+](C)[O-] [DIMETHYL SULFOXIDE] | 108 µM | 1.03 | 223 µM | 229 µM | 2.15 | 232 µM | 119 µM |
| COc1cccc2c1C(=O)c1c(O)c3c(c(O)c1C2=O)C[C@@](O)(C(=O)CO)C[C@@H]3O[C@H]1C[C@H](N)[C@H](O)[C@H](C)O1 [DOXORUBICIN] | 5.5 µM | – | 68.9 µM | 4.21 µM | – | 44.4 µM | 7.19 µM |
